System: 521955-158-R2-J5-PDC complex spheroid growth, % test/control
Assay: Anticancer human tumor 521955-158-R2-J5-PDC patient-derived pancreatic carcinoma cell line growth inhibition [Asc]
Conditions: for IC50: curve of first compound; for viability, T/C: stronger effect = lower value
Outline: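 Stromal components (HUVEC and hMSC) are co-assembled with the cancer cells into multicellular spheroids. Drugs are then added singly or paired, at concentrations falling by half-log increments from a clinically achievable maximum, capped at 10 microM without known Cmax.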

[1] = second compound 0.01 µM, first compound 0.00316 µM
[2] = second compound 0.01 µM, first compound 0.01 µM
[3] = second compound 0.01 µM, first compound 0.0316 µM
[4] = second compound 0.01 µM, first compound 0.1 µM
[5] = second compound 0.01 µM, first compound 0.316 µM
[6] = second compound 0.01 µM, first compound 1 µM
[7] = second compound 0.0316 µM, first compound 0.00316 µM
[8] = second compound 0.0316 µM, first compound 0.01 µM
[9] = second compound 0.0316 µM, first compound 0.0316 µM
[10] = second compound 0.0316 µM, first compound 0.1 µM
[11] = second compound 0.0316 µM, first compound 0.316 µM
[12] = second compound 0.0316 µM, first compound 1 µM
[13] = second compound 0.1 µM, first compound 0.00316 µM
[14] = second compound 0.1 µM, first compound 0.01 µM
[15] = second compound 0.1 µM, first compound 0.0316 µM
[16] = second compound 0.1 µM, first compound 0.1 µM
[17] = second compound 0.1 µM, first compound 0.316 µM
[18] = second compound 0.1 µM, first compound 1 µM
[19] = second compound 0.316 µM, first compound 0.00316 µM
[20] = second compound 0.316 µM, first compound 0.01 µM
[21] = second compound 0.316 µM, first compound 0.0316 µM
[22] = second compound 0.316 µM, first compound 0.1 µM
[23] = second compound 0.316 µM, first compound 0.316 µM
[24] = second compound 0.316 µM, first compound 1 µM
[25] = second compound 1 µM, first compound 0.00316 µM
[26] = second compound 1 µM, first compound 0.01 µM
[27] = second compound 1 µM, first compound 0.0316 µM
[28] = second compound 1 µM, first compound 0.1 µM
[29] = second compound 1 µM, first compound 0.316 µM
[30] = second compound 1 µM, first compound 1 µM
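Note: spheroids exposed to agents for 7 days before readout.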
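Throughout, for viability, T/C: 100% = DMSO vehicle control viability.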

SMILES	IC50 (second compound 0.01 µM)	IC50 (second compound 0.0316 µM)	IC50 (second compound 0.1 µM)	IC50 (second compound 0.316 µM)	IC50 (second compound 1 µM)	viability, T/C [1]	viability, T/C [2]	viability, T/C [3]	viability, T/C [4]	viability, T/C [5]	viability, T/C [6]	viability, T/C [7]	viability, T/C [9]	viability, T/C [10]	viability, T/C [15]	viability, T/C [16]	viability, T/C [21]	viability, T/C [22]	viability, T/C [27]	viability, T/C [28]	further results
CCN1CCN(Cc2ccc(Nc3ncc(F)c(-c4cc(F)c5nc(C)n(C(C)C)c5c4)n3)nc2)CC1 + CNC(C)C(=O)NC1CN(S(=O)(=O)c2cccc(S(=O)(=O)N3CCC4CCC(C(=O)NC(c5ccccc5)c5ccccc5)N4C(=O)C(NC(=O)C(C)NC)C3)c2)CCC2CCC(C(=O)NC(c3ccccc3)c3ccccc3)N2C1=O	> 1000 nM	> 1000 nM	> 1000 nM	> 1000 nM	> 1000 nM	89.3%	85.6%	71.2%	61.6%	73.2%	94.8%	87.8%	82.5%	84.1%	76.6%	76.9%	83.5%	66.6%	64.8%	57.7%	viability, T/C [8]: 106%; viability, T/C [11]: 83.6%; viability, T/C [12]: 102%; viability, T/C [13]: 97.6%; viability, T/C [14]: 91.7%; viability, T/C [17]: 86.7%; viability, T/C [18]: 96.8%; viability, T/C [19]: 76.3%; viability, T/C [20]: 76.8%; viability, T/C [23]: 69.7%; viability, T/C [24]: 105%; viability, T/C [25]: 95.5%; viability, T/C [26]: 85.1%; viability, T/C [29]: 69.9%; viability, T/C [30]: 103%
Cn1ncnc1[C@H]1c2n[nH]c(=O)c3cc(F)cc(c23)N[C@@H]1c1ccc(F)cc1 + CNC(C)C(=O)NC1CN(S(=O)(=O)c2cccc(S(=O)(=O)N3CCC4CCC(C(=O)NC(c5ccccc5)c5ccccc5)N4C(=O)C(NC(=O)C(C)NC)C3)c2)CCC2CCC(C(=O)NC(c3ccccc3)c3ccccc3)N2C1=O	> 100 nM	> 100 nM	> 100 nM	> 100 nM	> 100 nM	85.7%	65.6%	65.4%	71.9%			89.6%	62.3%	64.1%	86.9%	56.2%	73.4%	63.2%	68.3%	86.6%	viability, T/C (second compound 0.01 µM, first compound 0.000316 µM): 103%; viability, T/C (second compound 0.01 µM, first compound 0.001 µM): 103%; viability, T/C (second compound 0.0316 µM, first compound 0.000316 µM): 103%; viability, T/C (second compound 0.0316 µM, first compound 0.001 µM): 102%; viability, T/C [8]: 78%; viability, T/C (second compound 0.1 µM, first compound 0.000316 µM): 80.8%; viability, T/C (second compound 0.1 µM, first compound 0.001 µM): 108%; viability, T/C [13]: 91%; viability, T/C [14]: 76.5%; viability, T/C (second compound 0.316 µM, first compound 0.000316 µM): 100%; viability, T/C (second compound 0.316 µM, first compound 0.001 µM): 83%; viability, T/C [19]: 96.4%; viability, T/C [20]: 79.2%; viability, T/C (second compound 1 µM, first compound 0.000316 µM): 108%; viability, T/C (second compound 1 µM, first compound 0.001 µM): 75.1%; viability, T/C [25]: 102%; viability, T/C [26]: 89.5%
O=C(c1cc(Cc2n[nH]c(=O)c3ccccc23)ccc1F)N1CCN(C(=O)C2CC2)CC1 + CNC(C)C(=O)NC1CN(S(=O)(=O)c2cccc(S(=O)(=O)N3CCC4CCC(C(=O)NC(c5ccccc5)c5ccccc5)N4C(=O)C(NC(=O)C(C)NC)C3)c2)CCC2CCC(C(=O)NC(c3ccccc3)c3ccccc3)N2C1=O	> 10000 nM	> 10000 nM	> 10000 nM	> 10000 nM	> 10000 nM			74.8%	92.3%	60.6%	66.1%		66.8%	77.8%	71.8%	87.9%	89%	95.7%	73%	81.4%	viability, T/C (second compound 0.01 µM, first compound 3.16 µM): 73.4%; viability, T/C (second compound 0.01 µM, first compound 10 µM): 64.3%; viability, T/C [11]: 98.6%; viability, T/C [12]: 75.8%; viability, T/C (second compound 0.0316 µM, first compound 3.16 µM): 64.9%; viability, T/C (second compound 0.0316 µM, first compound 10 µM): 64.6%; viability, T/C [17]: 76.4%; viability, T/C [18]: 61.1%; viability, T/C (second compound 0.1 µM, first compound 3.16 µM): 74.6%; viability, T/C (second compound 0.1 µM, first compound 10 µM): 73.2%; viability, T/C [23]: 82.1%; viability, T/C [24]: 71.2%; viability, T/C (second compound 0.316 µM, first compound 3.16 µM): 71.5%; viability, T/C (second compound 0.316 µM, first compound 10 µM): 61.5%; viability, T/C [29]: 78.8%; viability, T/C [30]: 67.6%; viability, T/C (second compound 1 µM, first compound 3.16 µM): 62.5%; viability, T/C (second compound 1 µM, first compound 10 µM): 66.8%
O=C(c1ccc(F)c(F)c1Nc1ccc(I)cc1F)N1CC(O)([C@@H]2CCCCN2)C1 + CNC(C)C(=O)NC1CN(S(=O)(=O)c2cccc(S(=O)(=O)N3CCC4CCC(C(=O)NC(c5ccccc5)c5ccccc5)N4C(=O)C(NC(=O)C(C)NC)C3)c2)CCC2CCC(C(=O)NC(c3ccccc3)c3ccccc3)N2C1=O	15.7 nM	18.4 nM	14.5 nM	26.6 nM	15.8 nM	61.2%	57.2%	38.5%	35.7%	17.7%	20.2%	76.8%	46.5%	26.9%	53.5%	29.4%	48%	28%	43.5%	28.2%	viability, T/C [8]: 56.4%; viability, T/C [11]: 25.5%; viability, T/C [12]: 18.8%; viability, T/C [13]: 66.4%; viability, T/C [14]: 44.7%; viability, T/C [17]: 19.7%; viability, T/C [18]: 20.8%; viability, T/C [19]: 61.6%; viability, T/C [20]: 60.3%; viability, T/C [23]: 18.9%; viability, T/C [24]: 18.3%; viability, T/C [25]: 67.1%; viability, T/C [26]: 53.4%; viability, T/C [29]: 17.4%; viability, T/C [30]: 17.3%
